According to paper PMC9870890 (Nature Communications, 2023):
“And” between values parts separate entries of the source, which are not always exact repeats. Equal entries are not always repeated. Where two headings read alike, the source gives them in different places.

Target: T1, M2R (Homo sapiens, UniProt P08172)
T1 sequence (P08172 1-466): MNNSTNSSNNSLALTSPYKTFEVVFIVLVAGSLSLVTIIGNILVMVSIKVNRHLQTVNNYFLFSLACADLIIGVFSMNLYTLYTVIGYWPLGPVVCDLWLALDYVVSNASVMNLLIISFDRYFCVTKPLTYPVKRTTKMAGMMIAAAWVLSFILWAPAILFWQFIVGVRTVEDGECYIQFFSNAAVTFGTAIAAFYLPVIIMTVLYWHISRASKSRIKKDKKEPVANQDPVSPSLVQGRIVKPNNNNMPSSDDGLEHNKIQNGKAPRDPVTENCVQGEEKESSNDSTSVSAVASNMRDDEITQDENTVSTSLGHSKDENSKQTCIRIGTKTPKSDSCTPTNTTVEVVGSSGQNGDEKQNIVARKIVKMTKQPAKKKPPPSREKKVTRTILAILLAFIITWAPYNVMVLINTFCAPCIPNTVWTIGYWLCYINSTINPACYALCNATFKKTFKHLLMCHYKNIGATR
Experiment: cell-based
Set-up: expressed in transfected cells; host or cells: HEK 293T
Conditions: for Emax: HEK-293T
Experimental: Determination of β-arrestin-2 recruitment was performed applying the PathHunter assay (DiscoverX, Birmingham, U.K.) which is based on fragment complementation of β-galactosidase as described. In detail, HEK293T cells were transfected with the flag-tagged M2 receptor carrying the PKA fragment for enzyme complementation and transferred into 384-well micro plates. […] Determination of chemoluminescence was done with a Clariostar plate reader (BMG, Ortenberg, Germany). […] Normalized curves from three to five individual experiments each done in duplicate were analyzed by non-linear regression applying the algorithms in Prism 8.0 (GraphPad, San Diego, CA) to get dose-response curves representing average EC50 and Emax value.

## C[N+](C)(C)CC#CCOC1=NOCC1 [Ixo, iperoxo]
read-out: arrestin recruitment as % max effect of acetylcholin, iperoxo log [M] 3-8 + 100µM LY2119620
  Emax: 160%
read-out: arrestin recruitment as % max effect of acetylcholin, iperoxo log [M] 3-9 + 0.1µM LY2119620
  Emax: 160%
read-out: arrestin recruitment as % max effect of acetylcholin, iperoxo log [M] 3-9 + 3µM LY2119620
  Emax: 166%
read-out: arrestin recruitment as % max effect of acetylcholin, iperoxo log [M] 3-9 + 30µM LY2119620
  Emax: 175%
read-out: arrestin recruitment as % max effect of acetylcholin, iperoxo log [M] 3-9 + 100µM LY2119620
  Emax: 159%
read-out: arrestin recruitment as % max effect of acetylcholin, iperoxo log [M] 3-10 + 30µM LY2119620
  Emax: 141%
read-out: arrestin recruitment as % max effect of acetylcholin, iperoxo log [M] 3-10 + 100µM LY2119620
  Emax: 125%
read-out: arrestin recruitment as % max effect of acetylcholin, iperoxo log [M] 3-11 + 0.1µM LY2119620
  Emax: 19.4%
read-out: arrestin recruitment as % max effect of acetylcholin, iperoxo log [M] 3-11 + 1µM LY2119620
  Emax: 30.8%
read-out: arrestin recruitment as % max effect of acetylcholin, iperoxo log [M] 3-11 + 3µM LY2119620
  Emax: 72.1%
read-out: arrestin recruitment as % max effect of acetylcholin, iperoxo log [M] 3-11 + 10µM LY2119620
  Emax: 77.5%
read-out: arrestin recruitment as % max effect of acetylcholin, iperoxo log [M] 3-11 + 100µM LY2119620
  Emax: 58.2%
read-out: arrestin recruitment as % max effect of acetylcholin, iperoxo log [M] -5
  Emax: 152%
read-out: arrestin recruitment as % max effect of acetylcholin, iperoxo log [M] -6 + 0.1µM LY2119620
  Emax: 163%
read-out: arrestin recruitment as % max effect of acetylcholin, iperoxo log [M] -6 + 1µM LY2119620
  Emax: 142%
read-out: arrestin recruitment as % max effect of acetylcholin, iperoxo log [M] -6 + 3µM LY2119620
  Emax: 170%
read-out: arrestin recruitment as % max effect of acetylcholin, iperoxo log [M] -6 + 10µM LY2119620
  Emax: 155%
read-out: arrestin recruitment as % max effect of acetylcholin, iperoxo log [M] -6 + 30µM LY2119620
  Emax: 180%
read-out: arrestin recruitment as % max effect of acetylcholin, iperoxo log [M] -6 + 100µM LY2119620
  Emax: 166%
read-out: arrestin recruitment as % max effect of acetylcholin, iperoxo log [M] -7 + 30µM LY2119620
  Emax: 168%
read-out: arrestin recruitment as % max effect of acetylcholin, iperoxo log [M] -7 + 100µM LY2119620
  Emax: 161%
read-out: arrestin recruitment as % max effect of acetylcholin, iperoxo log [M] -8 + 0.1µM LY2119620
  Emax: 162%
read-out: arrestin recruitment as % max effect of acetylcholin, iperoxo log [M] -8 + 3µM LY2119620
  Emax: 149%
read-out: arrestin recruitment as % max effect of acetylcholin, iperoxo log [M] -8 + 30µM LY2119620
  Emax: 176%
read-out: arrestin recruitment as % max effect of acetylcholin, iperoxo log [M] -8 + 100µM LY2119620
  Emax: 160%
read-out: arrestin recruitment as % max effect of acetylcholin, iperoxo log [M] -10 + 3µM LY2119620
  Emax: 105%
read-out: arrestin recruitment as % max effect of acetylcholin, iperoxo log [M] -10 + 100µM LY2119620
  Emax: 89%
read-out: arrestin recruitment as % max effect of acetylcholin, iperoxo log [M] -11 + 3µM LY2119620
  Emax: 44.6%
read-out: arrestin recruitment as % max effect of acetylcholin, iperoxo log [M] -11 + 30µM LY2119620
  Emax: 75.7%
read-out: arrestin recruitment as % max effect of acetylcholin, iperoxo log [M] -11 + 100µM LY2119620
  Emax: 58.6%
read-out: arrestin recruitment as % max effect of acetylcholin, iperoxo log [M] -12 + 3µM LY2119620
  Emax: 37.8%
read-out: arrestin recruitment as % max effect of acetylcholin, iperoxo log [M] -12 + 100µM LY2119620
  Emax: 62.6%
read-out: arrestin recruitment as % max effect of acetylcholin, iperoxo log [M] -13 + 3µM LY2119620
  Emax: 33%
read-out: arrestin recruitment as % max effect of acetylcholin, iperoxo log [M] -13 + 10µM LY2119620
  Emax: 26.7%
read-out: arrestin recruitment as % max effect of acetylcholin, iperoxo log [M] -13 + 30µM LY2119620
  Emax: 59.3%
read-out: arrestin recruitment as % max effect of acetylcholin, iperoxo log [M] -13 + 100µM LY2119620
  Emax: 44.2%
read-out: enhancement of efficacy (Emax) in β-arrestin recruitment, presence of high concentration of LY2119620
  Emax: ~15%
Iperoxo log [M] 3-9
  arrestin recruitment as % max effect of acetylcholin: 135.8% and 120.8% and 147.9% and 130.1%
Iperoxo log [M] 3-9 + 0.1µM LY2119620
  arrestin recruitment as % max effect of acetylcholin: 156.9%
Iperoxo log [M] 3-9 + 1µM LY2119620
  arrestin recruitment as % max effect of acetylcholin: 109.3% and 162.2% and 161.4% and 201.0%
Iperoxo log [M] 3-9 + 10µM LY2119620
  arrestin recruitment as % max effect of acetylcholin: 130.3% and 161.0% and 169.5%
Iperoxo log [M] 3-9 + 30µM LY2119620
  arrestin recruitment as % max effect of acetylcholin: 168.8% and 163.9%
Iperoxo log [M] 3-10 + 0.1µM LY2119620
  arrestin recruitment as % max effect of acetylcholin: 82.7% and 92.1% and 124.5%
Iperoxo log [M] 3-10 + 3µM LY2119620
  arrestin recruitment as % max effect of acetylcholin: 147.1% and 158.1% and 137.1% and 138.5%
Iperoxo log [M] 3-10 + 10µM LY2119620
  arrestin recruitment as % max effect of acetylcholin: 103.3% and 152.4% and 152.5% and 133.9%
Iperoxo log [M] 3-10 + 30µM LY2119620
  arrestin recruitment as % max effect of acetylcholin: 133.2% and 130.6% and 122.9%
Iperoxo log [M] 3-10 + 100µM LY2119620
  arrestin recruitment as % max effect of acetylcholin: 127.5% and 129.1% and 112.5%
Iperoxo log [M] -7 + 0.1µM LY2119620
  arrestin recruitment as % max effect of acetylcholin: 171.1% and 186.3% and 156.7% and 161.0%
Iperoxo log [M] -7 + 1µM LY2119620
  arrestin recruitment as % max effect of acetylcholin: 129.3% and 176.9% and 172.6%
Iperoxo log [M] -7 + 3µM LY2119620
  arrestin recruitment as % max effect of acetylcholin: 210.7% and 168.6% and 182.6% and 172.8%
Iperoxo log [M] -7 + 10µM LY2119620
  arrestin recruitment as % max effect of acetylcholin: 131.2% and 159.6% and 162.7% and 198.6%
Iperoxo log [M] -7 + 30µM LY2119620
  arrestin recruitment as % max effect of acetylcholin: 161.3% and 181.0% and 168.2%
Iperoxo log [M] -7 + 100µM LY2119620
  arrestin recruitment as % max effect of acetylcholin: 157.1% and 172.7% and 165.6%
Iperoxo log [M] -8 + 0.1µM LY2119620
  arrestin recruitment as % max effect of acetylcholin: 168.3% and 154.3% and 173.5%
Iperoxo log [M] -8 + 1µM LY2119620
  arrestin recruitment as % max effect of acetylcholin: 124.1% and 172.3% and 160.8% and 152.0%
Iperoxo log [M] -8 + 3µM LY2119620
  arrestin recruitment as % max effect of acetylcholin: 158.0% and 166.2% and 162.4%
Iperoxo log [M] -8 + 10µM LY2119620
  arrestin recruitment as % max effect of acetylcholin: 139.2% and 163.1% and 168.9% and 181.1%
Iperoxo log [M] -8 + 30µM LY2119620
  arrestin recruitment as % max effect of acetylcholin: 176.5% and 174.9% and 157.1%
Iperoxo log [M] -8 + 100µM LY2119620
  arrestin recruitment as % max effect of acetylcholin: 165.6% and 153.6% and 149.1%
Iperoxo log [M] -9 + 0.1µM LY2119620
  arrestin recruitment as % max effect of acetylcholin: 127.2% and 148.3% and 150.9% and 143.2%
Iperoxo log [M] -9 + 3µM LY2119620
  arrestin recruitment as % max effect of acetylcholin: 137.5% and 153.6% and 172.9% and 151.5%
Iperoxo log [M] -9 + 10µM LY2119620
  arrestin recruitment as % max effect of acetylcholin: 118.8% and 155.2% and 169.6% and 149.0%
Iperoxo log [M] -9 + 30µM LY2119620
  arrestin recruitment as % max effect of acetylcholin: 161.0% and 151.6% and 144.8% and 137.0%
Iperoxo log [M] -9 + 100µM LY2119620
  arrestin recruitment as % max effect of acetylcholin: 158.6% and 154.0% and 158.3% and 124.7%
Iperoxo log [M] -10 + 10µM LY2119620
  arrestin recruitment as % max effect of acetylcholin: 79.6% and 137.1%
Iperoxo log [M] -10 + 30µM LY2119620
  arrestin recruitment as % max effect of acetylcholin: 112.5% and 108.5% and 109.4%
Iperoxo log [M] -10 + 100µM LY2119620
  arrestin recruitment as % max effect of acetylcholin: 85.8% and 82.4% and 75.4%
